Source: the NIST ThermoML archive (doi:10.1016/j.jct.2006.10.012)
Numbers after ± are expanded uncertainties.

Key:
[1] = Molar enthalpy of transition or fusion; details: Crystal; Adiabatic calorimetry

Cc1ccc2nc(C)ccc2c1 [2,6-dimethylquinoline]
Liquid
Details | vapor or sublimation pressure [kPa]
336.99 K, Inclined piston gauge | 0.0375 ± 0.0008
339.98 K, Inclined piston gauge | 0.0461 ± 0.0009
349.98 K, Inclined piston gauge | 0.0877 ± 0.0009
359.98 K, Inclined piston gauge | 0.1589 ± 0.0009
369.98 K, Inclined piston gauge | 0.2786 ± 0.001
379.97 K, Inclined piston gauge | 0.4711 ± 0.0012
389.97 K, Inclined piston gauge | 0.7716 ± 0.0016
399.97 K, Inclined piston gauge | 1.227 ± 0.002
404.97 K, Inclined piston gauge | 1.532 ± 0.0024
409.97 K, Inclined piston gauge | 1.899 ± 0.0028
411.21 K, Twin ebulliometer | 2 ± 0.0082
414.96 K, Inclined piston gauge | 2.34 ± 0.0031
428.45 K, Twin ebulliometer | 3.987 ± 0.0083
436.24 K, Twin ebulliometer | 5.329 ± 0.009
447.73 K, Twin ebulliometer | 7.992 ± 0.0096
456.33 K, Twin ebulliometer | 10.65 ± 0.011
463.33 K, Twin ebulliometer | 13.33 ± 0.012
470.57 K, Twin ebulliometer | 16.66 ± 0.013
476.57 K, Twin ebulliometer | 19.93 ± 0.015
484.49 K, Twin ebulliometer | 25.02 ± 0.017
492.47 K, Twin ebulliometer | 31.19 ± 0.02
500.45 K, Twin ebulliometer | 38.56 ± 0.023
508.5 K, Twin ebulliometer | 47.36 ± 0.027
516.61 K, Twin ebulliometer | 57.81 ± 0.031
524.76 K, Twin ebulliometer | 70.1 ± 0.036
532.96 K, Twin ebulliometer | 84.5 ± 0.042
541.22 K, Twin ebulliometer | 101.3 ± 0.05
549.51 K, Twin ebulliometer | 120.76 ± 0.06
557.86 K, Twin ebulliometer | 143.19 ± 0.06
566.25 K, Twin ebulliometer | 168.98 ± 0.07
574.7 K, Twin ebulliometer | 198.44 ± 0.08
583.18 K, Twin ebulliometer | 231.96 ± 0.1
591.71 K, Twin ebulliometer | 269.97 ± 0.1

Details | Critical temperature [K] | Triple point temperature [K] | mass density [kg/m3]
348.13 K, Liquid | – | – | 995.1 ± 2
373.12 K, Liquid | – | – | 975.8 ± 2
398.12 K, Liquid | – | – | 956.9 ± 2
423.12 K, Liquid | – | – | 938.7 ± 5
448.11 K, Liquid | – | – | 914.4 ± 1.9
473.11 K, Liquid | – | – | 894 ± 1.9
498.11 K, Liquid | – | – | 872.2 ± 1.9
523.11 K, Liquid | – | – | 849.2 ± 2
Crystal, Adiabatic calorimetry | – | 330.84 ± 0.05 | –
Liquid, DTA | 786 ± 2 | – | –

Details | Molar enthalpy of transition or fusion [kcal/mol]
[1] | 4.88 ± 0.00406
